Measured values: PubChem BioAssay (NCI)
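GI50: concentration for 50% inhibition of growth. TGI: concentration producing complete growth inhibition.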

Columns and labels:
Experiment in all cases: NCI tumour cell line growth inhibition, 384-well format
[1] = tested on: A549 NSCLC
[2] = tested on: BT-549 breast
[3] = tested on: CAKI-1 renal
[4] = tested on: COLO 205 colon
[5] = tested on: EKVX NSCLC
[6] = tested on: HCT-15 colon
[7] = tested on: HT29 colon
[8] = tested on: IGROV1 ovarian
[9] = tested on: KM12 colon
[10] = tested on: LOX IMVI melanoma
[11] = tested on: MALME-3M melanoma
[12] = tested on: MCF7 breast
[13] = tested on: MDA-MB-231 breast
[14] = tested on: MDA-MB-468 breast
[15] = tested on: NCI-H226 lung
[16] = tested on: NCI-H460 NSCLC
[17] = tested on: NCI-H522 lung
[18] = tested on: NCI/ADR-RES ovarian
[19] = tested on: OVCAR-5 ovarian
[20] = tested on: PC-3 prostate
[21] = tested on: RPMI-8226 leukemia
[22] = tested on: SF-268 CNS
[23] = tested on: SN12C renal
[24] = tested on: SNB-19 CNS
[25] = tested on: SNB-75 CNS
[26] = tested on: SW-620 colon
[27] = tested on: T-47D breast
[28] = tested on: U251 glioblastoma
[29] = tested on: UACC-257 melanoma
[30] = tested on: UO-31 renal
[31] = tested on: 786-0 renal
[32] = tested on: A498 renal
[33] = tested on: ACHN renal
[34] = tested on: CCRF-CEM leukemia
[35] = tested on: DU-145 prostate
[36] = tested on: HCC-2998 colon
[37] = tested on: HCT-116 colon
[38] = tested on: HL-60(TB) leukemia
[39] = tested on: HOP-62 NSCLC
[40] = tested on: HOP-92 NSCLC
[41] = tested on: HS 578T breast
[42] = tested on: K-562 leukemia
[43] = tested on: M14 melanoma
[44] = tested on: MDA-MB-435 melanoma
[45] = tested on: MOLT-4 leukemia
[46] = tested on: NCI-H23 lung
[47] = tested on: NCI-H322M lung
[48] = tested on: OVCAR-3 ovarian
[49] = tested on: OVCAR-4 ovarian
[50] = tested on: OVCAR-8 ovarian
[51] = tested on: RXF 393 renal
[52] = tested on: SF-295 CNS
[53] = tested on: SF-539 CNS
[54] = tested on: SK-MEL-28 melanoma
[55] = tested on: SK-MEL-5 melanoma
[56] = tested on: SK-OV-3 ovarian
[57] = tested on: SR leukemia
[58] = tested on: TK-10 renal

COc1cccc(OCCCN)c1-c1cc(Nc2cnc(C#N)cn2)n[nH]1
TGI [1]: 14.2 µM | TGI [2]: 0.0242 µM | GI50 [3]: 35.4 nM | TGI [3]: 2.62 µM | GI50 [4]: 16.9 nM | TGI [4]: 0.133 µM | TGI [5]: 12.7 µM | GI50 [6]: 0.0121 µM | TGI [6]: 0.0288 µM | GI50 [7]: 19.9 nM | TGI [7]: 0.145 µM | TGI [8]: 1.27 µM | TGI [9]: 0.0867 µM | GI50 [10]: 0.0234 µM | TGI [10]: 0.847 µM | TGI [11]: 0.0349 µM | TGI [12]: 13.3 µM | GI50 [13]: 0.0353 µM | TGI [13]: 5.25 µM | TGI [14]: 0.0116 µM | GI50 [15]: 5360 nM | TGI [15]: 18.8 µM | GI50 [16]: 20.9 nM | TGI [16]: 0.121 µM | GI50 [17]: 0.0352 µM | TGI [17]: 0.833 µM | GI50 [18]: 0.016 µM | TGI [18]: 0.0596 µM | TGI [19]: 0.017 µM | GI50 [20]: 0.0559 µM | TGI [20]: 13.2 µM | TGI [21]: 0.0278 µM | GI50 [22]: 0.0249 µM | TGI [22]: 6.59 µM | GI50 [23]: 0.0396 µM | TGI [23]: 0.761 µM | TGI [24]: 0.122 µM | GI50 [25]: 0.0171 µM | TGI [25]: 0.49 µM | GI50 [26]: 0.0715 µM | TGI [26]: 2.29 µM | GI50 [27]: 1.83 µM | TGI [27]: 18.3 µM | GI50 [28]: 0.0255 µM | TGI [28]: 11.9 µM | GI50 [29]: 0.0181 µM | TGI [29]: 0.0814 µM | TGI [30]: 16.3 µM

CC1(O)CC(c2nc(-c3ccc4ccc(-c5ccccc5)nc4c3)c3c(N)nccn23)C1 (centres undefined)
GI50 [31]: 12.5 µM | TGI [31]: 25.1 µM | GI50 [32]: 6.67 µM | TGI [32]: 19 µM | GI50 [1]: 10.3 µM | TGI [1]: 23.3 µM | GI50 [33]: 5.3 µM | TGI [33]: 22.4 µM | GI50 [2]: 5.8 µM | TGI [2]: 18.2 µM | GI50 [3]: 5360 nM | TGI [3]: 18.3 µM | GI50 [34]: 5.63 µM | TGI [34]: 17.9 µM | GI50 [4]: 209 nM | TGI [4]: 11.3 µM | GI50 [35]: 5.74 µM | TGI [35]: 20.3 µM | GI50 [5]: 2740 nM | TGI [5]: 16.9 µM | GI50 [36]: 8.12 µM | TGI [36]: 20.7 µM | GI50 [37]: 7.55 µM | TGI [37]: 20.7 µM | GI50 [6]: 3.09 µM | TGI [6]: 14.6 µM | GI50 [38]: 51.7 nM | TGI [38]: 1610 nM | GI50 [39]: 7.05 µM | TGI [39]: 20.3 µM | GI50 [40]: 2730 nM | TGI [40]: 15.3 µM | GI50 [41]: 9.96 µM | TGI [41]: 21.6 µM | GI50 [7]: 306 nM | TGI [7]: 16 µM | GI50 [8]: 10.7 µM | TGI [8]: 24.1 µM | GI50 [42]: 7.3 µM | TGI [42]: 20.5 µM | GI50 [9]: 3.97 µM | TGI [9]: 13.8 µM | GI50 [10]: 11.1 µM | TGI [10]: 23.2 µM | GI50 [43]: 10.5 µM | TGI [43]: 22.4 µM | GI50 [11]: 2.76 µM | TGI [11]: 12.3 µM | GI50 [12]: 182 nM | TGI [12]: 13.4 µM | GI50 [13]: 5.42 µM | TGI [13]: 18.9 µM | GI50 [44]: 7.98 µM | TGI [44]: 20.8 µM | GI50 [14]: 1900 nM | TGI [14]: 6.36 µM | GI50 [45]: 2.89 µM | TGI [45]: 10.4 µM | GI50 [15]: 2860 nM | TGI [15]: 12.2 µM | GI50 [46]: 2170 nM | TGI [46]: 14.9 µM | GI50 [47]: 4.22 µM | TGI [47]: 17.4 µM | GI50 [16]: 2790 nM | TGI [16]: 15.5 µM | GI50 [17]: 5.74 µM | TGI [17]: 19 µM | GI50 [18]: 5.47 µM | TGI [18]: 18.7 µM | GI50 [48]: 10.5 µM | TGI [48]: 22.4 µM | GI50 [49]: 10.3 µM | TGI [49]: 22.5 µM | GI50 [19]: 12.7 µM | TGI [19]: 25.9 µM | GI50 [50]: 10.2 µM | TGI [50]: 22 µM | GI50 [20]: 10 µM | TGI [20]: 22.8 µM | GI50 [21]: 1.32 µM | TGI [21]: 4.12 µM | GI50 [51]: 2.76 µM | TGI [51]: 9.01 µM | GI50 [22]: 10.8 µM | TGI [22]: 22.9 µM | GI50 [52]: 12.9 µM | TGI [52]: 25.6 µM | GI50 [53]: 13 µM | TGI [53]: 25.8 µM | GI50 [54]: 13.8 µM | TGI [54]: 26.7 µM | GI50 [55]: 2430 nM | TGI [55]: 12 µM | GI50 [56]: 8.99 µM | TGI [56]: 21 µM | GI50 [23]: 12.8 µM | TGI [23]: 25.6 µM | GI50 [24]: 13 µM | TGI [24]: 25.9 µM | GI50 [25]: 10.3 µM | TGI [25]: 22 µM | GI50 [57]: 10.2 µM | TGI [57]: 21.8 µM | GI50 [26]: 3.85 µM | TGI [26]: 17.9 µM | GI50 [27]: 4.67 µM | TGI [27]: 14.3 µM | GI50 [58]: 6.58 µM | TGI [58]: 19.3 µM | GI50 [28]: 13 µM | TGI [28]: 25.8 µM | GI50 [29]: 10.7 µM | TGI [29]: 22.5 µM | GI50 [30]: 6.8 µM | TGI [30]: 20.5 µM

Cc1c(F)c(N)c2c(=O)cc(-c3ccc(N)c(F)c3)oc2c1F
GI50 [32]: < 0.01 µM | TGI [32]: 0.13 µM | GI50 [1]: 29.9 µM | TGI [1]: > 100 µM | GI50 [2]: 16.4 µM | TGI [2]: 40.4 µM | GI50 [3]: < 10 nM | TGI [3]: > 100 µM | GI50 [5]: 2980 nM | TGI [5]: > 100 µM | GI50 [36]: < 0.01 µM | TGI [36]: > 100 µM | GI50 [37]: 28 µM | TGI [37]: > 100 µM | GI50 [6]: > 100 µM | TGI [6]: > 100 µM | GI50 [38]: 157 nM | TGI [38]: > 100000 nM | GI50 [41]: 10.7 µM | TGI [41]: 29.5 µM | GI50 [7]: > 100000 nM | TGI [7]: > 100 µM | GI50 [8]: < 0.01 µM | GI50 [42]: 1.75 µM | GI50 [9]: 93 µM | TGI [9]: > 100 µM | GI50 [10]: > 100 µM | TGI [10]: > 100 µM | GI50 [11]: 28.6 µM | TGI [11]: 86.5 µM | GI50 [12]: < 10 nM | TGI [12]: 0.0338 µM | GI50 [13]: 26.7 µM | TGI [13]: > 100 µM | GI50 [44]: 34.9 µM | TGI [44]: > 100 µM | GI50 [14]: < 10 nM | GI50 [45]: 85.1 µM | TGI [45]: > 100 µM | GI50 [15]: < 10 nM | GI50 [47]: 24.3 µM | TGI [47]: > 100 µM | GI50 [16]: < 10 nM | TGI [16]: > 100 µM | GI50 [17]: 9.4 µM | TGI [17]: 43.1 µM | GI50 [18]: 14.1 µM | TGI [18]: > 100 µM | GI50 [48]: 0.0251 µM | TGI [48]: 37.9 µM | GI50 [19]: < 0.01 µM | GI50 [20]: > 100 µM | TGI [20]: > 100 µM | GI50 [21]: 14.2 µM | TGI [21]: > 100 µM | GI50 [51]: 10.5 µM | TGI [51]: 31.5 µM | GI50 [22]: 23.2 µM | TGI [22]: 97.6 µM | GI50 [53]: 28 µM | TGI [53]: > 100 µM | GI50 [54]: > 100 µM | TGI [54]: > 100 µM | GI50 [55]: < 10 nM | TGI [55]: > 100 µM | GI50 [56]: 29.3 µM | TGI [56]: > 100 µM | GI50 [25]: 10.8 µM | TGI [25]: 25.2 µM | GI50 [57]: 4.12 µM | TGI [57]: > 100 µM | GI50 [26]: > 100 µM | TGI [26]: > 100 µM | GI50 [28]: 18 µM | TGI [28]: > 100 µM
